# Patent US8093395B2 (priority 2007, dated 2012)
# Read-outs that look alike come from different tables or passages of the source.
# Columns and labels:
# Assay in all cases: biochemical
# Assay type in all cases: biochemical
# Conditions in all cases: for activity at 1 µM: pH 5.5, read-out: Sphingomyelinase Activity (%)
# Bacillus cereus-SMase [1] = biological target: T1, Bacillus cereus-SMase (Bacillus cereus, UniProt P11889)
# Bacillus cereus-SMase [2] = biological target: T1, Bacillus cereus-SMase; remark: listed apart in the source
# Procedure: Experiment 3: Influence of Compound (1a) and Compound (1b) on the ^14C-Sphingomyelin (^14C-Sphingomyelin) Decomposition Activity of Bacillus cereus-SMase
# (§1) (i) Solution of Compound (1a)
# (§2) Compound (1a) was dissolved in MeOH and adjusted to 1.7 mM and 17 mM.
# (§3) (ii) Solution of Compound (1b)
# (§4) Compound (1b) was dissolved in MeOH and adjusted to 1.7 mM and 17 mM.
# (iii) Preparation of TX-Buffer
# 0.5 g of Triton X-100 was dissolved in 100 ml of 0.02 M TB.
# [Method] 30 ng/ml Bacillus cereus-SMase was mixed with the solution of Compound (1a) with each concentration or the solution of Compound (1b) with each concentration, and the mixture was adjusted with TX-buffer (pH 5.5) to a total volume of 200 μl and pre-treated for 10 minutes at 37° C., after which 10 μl of ^14C-sphingomyelin was added to the reaction mixture, and the resulting mixture was incubated for 30 minutes at 37° C. 600 μl of a solvent to stop the reaction (stop solution; CHCl3:MeOH=1:2) was added to the reaction mixture and the resulting mixture was stirred for 30 seconds twice, and centrifuged for 20 minutes at 2,000 rpm, after which the upper layer was measured using a liquid scintillation counter.
# Bacillus cereus-SMase [3] = biological target: T1, Bacillus cereus-SMase; remark: listed apart in the source
# Procedure: Preparation of Sphingomyelin-Liposome (SM-Liposome)
# The sphingomyelin (SM), cholesterol, and CF solution used were as follows:
# SM: sphingomyelin from bovin brain, code: 32156-74
# Cholesterol: Nakarai code: 08721-75
# CF solution: 5(6)-carbosyfluorescein; SIGMA C8166, FW=460.4
# About 100 μl of 1 N sodium hydroxide (NaOH) was added to CF (27 mg/3 ml, DW) to prepare a CF solution. At this time, NaOH was added to give a pH of 7 to 8 as measured by a pH test paper.
# Liposome Preparation Method
# 59 μl of a solution obtained by dissolving 2 mg of sphingomyelin (SM) in 160 μl of a mixed solvent of chloroform (CHCl3) and methanol (MeOH) (CHCl3:MeOH=2:1) was mixed with 20 μl of a solution obtained by dissolving 19.3 mg of cholesterol in 1 ml of CHCl3; the mixture was homogeneously spread to the bottom of a glass test tube while the CHCl3 and MeOH were distilled under nitrogen, and dried in a desiccator for 30 minutes. The CF solution was warmed to 55° C., and 80 μl of the CF solution was added with stirring to the SM from which the solvent was distilled (the molar ratio of […]: 1:1), and a procedure of placing the mixture in a water bath at 55° C. and stirring the mixture was repeated three times at 30-second intervals. A suitable amount of TBS was added, the mixture was centrifuged for 20 minutes at 15,000 rpm and 4° C., and the supernatant was removed. A suspension of the resulting product in 300 μl of TBS was used as a liposome.
# Experiment 2: Influence of Compound (1a) and Compound (1b) on SM-Liposome Degradation Activity of Bacillus cereus-SMase
# as §1, §2, §3, §4
# [Method] Bc-SMase (50 ng/ml) was mixed with the solution of Compound (1a) with each concentration or the solution of Compound (1b) with each concentration, and the mixture was adjusted with GTBS (pH 5.5) to a total volume of 180 μl and pre-treated for 10 minutes at 37° C., after which 20 μl of the SM-liposome was added to the resulting reaction mixture and incubated for 30 minutes at 37° C. The reaction mixture was measured using a fluorometer (Corona Electric Co., Ltd.; MTP32 Microplate Reader, Ex490, Em530).
# T1 sequence (P11889 28-333): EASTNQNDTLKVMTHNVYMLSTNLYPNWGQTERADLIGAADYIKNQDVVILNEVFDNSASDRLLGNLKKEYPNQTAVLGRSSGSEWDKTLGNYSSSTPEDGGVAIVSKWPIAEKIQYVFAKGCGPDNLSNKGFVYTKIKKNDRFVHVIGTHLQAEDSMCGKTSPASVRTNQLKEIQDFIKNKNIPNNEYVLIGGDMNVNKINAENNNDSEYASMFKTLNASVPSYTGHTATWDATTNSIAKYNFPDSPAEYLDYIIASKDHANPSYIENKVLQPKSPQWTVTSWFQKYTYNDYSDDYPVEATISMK
Structure (SMILES),"sphingomyelinase activity was inhibited by (text summary of Table 1) (Bacillus cereus-SMase [1]; 100-μM solution, sheep erythrocyte hemolysis)",activity at 1 µM (Bacillus cereus-SMase [1]),"sphingomyelinase activity was inhibited by (Table 3) (Bacillus cereus-SMase [2]; 100-μM solution, 14C-sphingomyelin decomposition)",activity at 1 µM (Bacillus cereus-SMase [2]),"inhibition of sphingomyelinase activity (text summary of Table 2) (Bacillus cereus-SMase [3]; 100-μM solution, SM-liposome degradation)",activity at 1 µM (Bacillus cereus-SMase [3]),"inhibitory effect compared with Compound (1a) (Bacillus cereus-SMase [1]; 1 to 100 μM, sheep erythrocyte hemolysis)","inhibitory effect compared with Compound (1a) (Bacillus cereus-SMase [2]; 1 to 100 μM, 14C-sphingomyelin decomposition)","inhibitory effect compared with Compound (1a) (Bacillus cereus-SMase [3]; 1 to 100 μM, SM-liposome degradation)"
CCCCCCCCCCCCC/C=C/[C@@H](O)C(COCc1cccc(-c2ccccn2)n1)NC(=O)CCCCC (stereo partly drawn) [Compound (1a)],about 30%,98.2 ± 1.4%,about 25%,98.6 ± 1.3%,substantially completely inhibited,99 ± 0.2%,,,
CCCCCCCCCCCCC/C=C/[C@@H](OCc1cccc(-c2ccccn2)n1)C(CO)NC(=O)CCCCC (stereo partly drawn) [Compound (1b)],,96.2 ± 2.7%,,98.2 ± 2.3%,,99.1 ± 0.3%,did not show as potent an inhibitory effect as Compound (1a),did not show as potent an inhibitory effect as Compound (1a),did not show as potent an inhibitory effect as Compound (1a)
